# Measurements: publication PMC3914891, “Pentacyclic Nitrofurans with In Vivo Efficacy and Activity against Nonreplicating Mycobacterium tuberculosis” (PLoS ONE, 2014)
# What was measured:
# M. ulcerans (ATCC 35840) = experiment: MIC by agar proportion method: M. ulcerans; assay type: cell-based; conditions: Mycobacterium ulcerans, ATCC35840, 672 h; agar proportion method, 4 weeks; read-out: Minimum Inhibitory Concentration, M. ulcerans
# [1] = system: Bacillus subtilis (ATCC 23857); experiment: MIC, spectrum of activity: B.s.; assay type: cell-based; conditions: ATCC23857, read-out: Minimum Inhibitory Concentration, B.s.
# [2] = rats; IV 10 mg/kg and oral 100 mg/kg
smiles,measurement,setting,value
"O=[N+]([O-])c1ccc(C2=NOC(c3ccc(N4CCC(Oc5ccc(OC(F)(F)F)cc5)CC4)cc3)C2)o1 (stereo not drawn) [Compound 9a, 3-(5-Nitrofuran-2-yl)-5-(4-(4-(4-(trifluoromethoxy)phenoxy)piperidin-1-yl)phenyl)-4,5-dihydroisoxazole]",MIC,M. ulcerans (ATCC 35840),0.02 to 0.05 µg/mL
same,MIC,[1],100 µg/mL
same,Toxicity by intravenous and oral dosing,[2],non-toxic
